Assay results published in patent US20240010685A1, “RNA SENSORS AND USES THEREOF” (YISSUM RESEARCH DEVELOPMENT COMPANY OF THE HEBREW …, priority 2020, published 2024).
Several values for one entry are separate records, joined by “and”; a condition that tells them apart may be missing. Equal entries are not always repeated.

Key:
complementary RNA [1] = experiment: photophysical properties of duplex cpFIT-PNAs with complementary RNA (fluorescence spectrometry); type: physicochemical; settings: for BR (brightness) / εmax / λmax, abs / Φ (quantum yield, QY): duplex with complementary RNA; for Φ (quantum yield, QY): relative to Cresyl Violet, 3 μM FIT-PNA in PBS pH 7; for I/I0: fluorescence enhancement, duplex with complementary RNA vs single strand; for enhancement upon duplex formation with complementary RNA: [FIT-PNA]=3 μM, [RNA]=4.5 μM
Procedure: (A) set 1 showing fluorescence of FIT-PNA:RNA duplex for FIT-PNAs 1-4, (B) set 2 showing fluorescence of FIT-PNA:RNA duplex for FIT-PNAs 5-7 and, (C) enhanced fluorescence of bis-cpFIT-PNAs (4 and 7) after RNA hybridization. [FIT-PNA]=[cpFIT-PNA]=3 μM, [RNA]=4.5 μM.
Fluorescence spectra were recorded by using a Jasco FT-6500 spectrometer. Measurements were carried out in fluorescence quartz cuvettes (10 mm) at a 3 μM concentration of FIT-PNA in a PBS buffered solution (100 mM NaCl, 10 mM NaH2PO4, pH 7). Quantum yields were determined relative to Cresyl Violet in PBS^3. PNAs were hybridized to complementary RNA using a 1:1.5 mixture of PNA:RNA at 37° C. for 1-2 hr. Samples were excited at 575 nm and emission spectra were recorded at 585-800 nm.

complementary RNA [2] = experiment: Tm of RNA:PNA duplexes (duplex stability); type: binding; parameters: ΔTm: unit not given here; settings: for Tm: RNA:PNA duplex; for ΔTm: vs unmodified control FIT-PNA of the set (1 or 5)
Procedure: In addition, the enhancement upon duplex formation with complementary RNA observed for these FIT-PNAs (4 and 7) was quite dramatic; 47-fold for FIT-PNA 7 and 46-fold for FIT-PNA 4 (FIG. 1B). The effect of cpPNA monomers to duplex stability was assessed by measuring Tm for all RNA:PNA duplexes (Table 2). The stabilizing effect was smaller for FIT-PNA in comparison to that reported for cpPNA. It is believed that this is due to the close proximity of the modified bases to the bulkier BisQ surrogate base in comparison to natural bases. For all measurements an additional transition at 60° C. was observed.

CCAT1 = experiment: fluorescence of CCAT1 FIT-PNA with RNA; settings: [RNA]=1.5 μM and [FIT-PNA]=1 μM
From the text: Methylating the N-7 position of Guanosine base of a PNA monomer (G+ PNA monomer) results in an improvement in the hybridization to complementary DNA whilst avoiding PNA:PNA inter- and intra-duplex formation. As enhancement of FIT-PNA fluorescence depends on the ratio between ss/ds forms (PNA/PNA:RNA), lowering the background fluorescence of ssPNA should result in greater sensitivity (i.e. increased fluorescence enhancement). In the ss form, the FIT-PNA has low background fluorescence due to […] interactions between the aromatic BisQ and adjacent aromatic PNA monomers (especially purines: G and A). As BisQ has a delocalized positive charge (from nitrogen to nitrogen), the introduction of an adjacent positive charge on G or A causes electrostatic repulsion between BisQ and G+/A+ resulting in reduced background fluorescence. […] Data points to both a decrease in signal background of ssFIT-PNA and to an increase in fluorescence in duplex form (FIT-PNA:RNA) in comparison to non-modified CCAT1 FIT-PNA (FIG. 7). […]
In some embodiments, the modified or charged bases, G^+ and A^+, may be provided with a cp group positioned in their vicinity or as a cpG^+or cpA^+ monomer, in similarity to cpBisQ (Scheme 4). […] Data points to an increase in fluorescence in duplex form (FIT-PNA:RNA) in comparison to non-modified CCAT1 FIT-PNA as well as G+ and cpG modified CCAT1 FIT-PNA sequences (FIG. 8). […]

[3] = system: BRAF V600E point mutation; experiment: fluorescence spectra of BRAF FIT-PNA with fully matched RNA (mutant) and mis-match RNA (WT); settings: 1 μM PNA
From the text: The data points to the added value of introducing the PEG8 linker. Clearly, the addition of the PEG8 linker improves the signal for fully matched RNA without losing the discrimination for the SNP. The addition of cpPNAs on both sides of BisQ (Table 2) results in an increased fluorescence in signal with mutant RNA (FIG. 6), however, the signal for WT RNA (with mismatch) also increases. This leads to some loss of discrimination for this SNP.
FIGS. 5A-B depict the added value of the PEG8 linker. Fluorescence spectra of CLIP6 FIT-PNA (5A, right) and, CLIP6-PEG8-FIT-PNA (5B, left) with fully matched RNA (mutant) and mis-match RNA (WT).
FIG. 6 depicts the increase in fluorescence for BRAF FIT-PNA substituted with cp. Fluorescence spectra of CLIP6-PEG8-cpFIT-PNA (1 μM) with fully matched RNA (mutant, (1.5 μM)) and mis-match RNA (WT, (1.5 μM)). A two-fold increase in fluorescence is obtained in comparison to the non-modified FIT-PNA (CLIP6-PEG8-FIT-PNA). An 18-fold enhancement in fluorescence is observed for CLIP6-PEG8-cpFIT-PNA in duplex form (with complementary RNA) in comparison to single strand.

complementary RNA [4] = experiment: limit of detection (LOD) measurements, plate reader; settings: overnight incubation at RT
Procedure: As used herein, the term “amount” made in reference to presence of an SOI in a sample, refers to a quantity of the SOI that is sufficient to interact with a conjugate of the invention to provide a measurable signal. This amount is in the low nM range as shown for FIT-PNA 7 (Table 2).
(§1) Fluorescence end points were recorded by using a Cytation 3 plate reader. Measurements were carried out in Greiner 96 well black plates with flat bottom, at 0.5 μM concentration in a PBS buffered solution (100 mM NaCl, 10 mM NaH2PO4, pH 7). FIT-PNAs were hybridized to complementary RNA using a 1:1.5 mixture of PNA:RNA at 37° C. for 1-2 hr or by allowing overnight incubation at RT (for limit of detection (LOD) measurements). Samples were excited at 575 nm and measured at 615 nm.

[5] = system: 11-mer RNAs with all three possible mismatches; experiment: mismatch sensitivity of cpFIT-PNAs, plate reader; type: binding
Procedure: Mismatch sensitivity was evaluated for single and doubly modified cpFIT-PNAs. Mismatch sensitivity for mono-substituted cpPNAs (cpFIT-PNAs 2, 3, and 6) are presented in FIGS. 3A-B. Double substituted cpFIT PNAs 4 and 7 were compared to FIT-PNA controls (1 and 5) and are presented in FIGS. 2A-B. 11-mer RNAs with all three possible mismatches were introduced either at 3′ (to the left of BisQ) or 5′ (to the right of BisQ) positions opposite to the nearby base to BisQ. One clear observation is that cpFIT-PNAs have significant selectivity for pyrimidine-pyrimidine mismatches (CC, TU, TC, CU where underlined base refers to PNA base) in comparison to FIT-PNA controls with the exception of the CU mismatch for cpFIT-PNA 4. For cpFIT-PNA 7, TC and TU mismatches are discriminated by a factor of 7.5 and 13.9-fold (vs. full matched RNA), respectively. This is around a 3 to 5-fold increase with respect to non-modified FIT-PNA 5.
(A) double cpFIT-PNA 4 compared to FIT-PNA 1 and (B) double cpFIT-PNA 7 compared to FIT-PNA 5. FIT-PNAs were annealed to all possible 11-mer RNAs and measured on a plate reader (λex=575 λnm, Em=619 nm, n=3). [FIT-PNA]=[cpFIT-PNA]=0.5 μM, [RNA]=0.75 μM.
FIGS. 3A-B provide mismatch sensitivity of single substituted cpFIT-PNAs. (A) cpFIT-PNA 2 and 3 and (B) cpFIT-PNA 6. FIT-PNAs (0.5 μM) were annealed to all possible 11-mer RNAs (0.75 μM) and measured on a plate reader (λex=575 nm, λem=619 nm, n=3).
as §1

Substance	BR (brightness) (complementary RNA [1])	εmax (complementary RNA [1]) [mM⁻¹ cm⁻¹]	λmax, abs (complementary RNA [1]) [nm]	Φ (quantum yield, QY) (complementary RNA [1])	I/I0 (complementary RNA [1])	Tm (complementary RNA [2]) [°C]	ΔTm (complementary RNA [2])	increase in fluorescence (CCAT1) [fold]	enhancement in fluorescence in duplex form (with complementary RNA) in comparison to single strand ([3]; 1.5 μM RNA) [fold]	increase in fluorescence in comparison to the non-modified FIT-PNA (CLIP6-PEG8-FIT-PNA) ([3]; 1.5 μM fully matched RNA (mutant))	enhancement upon duplex formation with complementary RNA (complementary RNA [1]) [fold]	amount of SOI sufficient to provide a measurable signal (complementary RNA [4])	increase in TC/TU mismatch discrimination with respect to non-modified FIT-PNA 5 [5] [fold]	TC mismatch discrimination vs. full matched RNA ([5]; 0.5 μM FIT-PNA, 0.75 μM RNA) [fold]	TU mismatch discrimination vs. full matched RNA ([5]; 0.5 μM FIT-PNA, 0.75 μM RNA) [fold]
^3′(4)KD-ATA-C-BisQ-TACAAC-^5′ [FIT-PNA 1, reference compound]	15 mM⁻¹ cm⁻¹ and 15.0 mM⁻¹ cm⁻¹	83.2	588	0.18	12	50.2	–	–	–	–	–	–	–	–	–
^3′(4)KD-ATA-C-BisQ-cpT-ACAAC-5′ [FIT-PNA 2]	16.4 mM⁻¹ cm⁻¹	91.0	590	0.18	15	53.7	(+3.5)	–	–	–	–	–	–	–	–
CCAACCT-BisQ-cpG^+TAAGTG-dK4 [cpG^+ modified CCAT1 FIT-PNA]	–	–	–	–	–	–	–	10	–	–	–	–	–	–	–
^3′(4)KD-ATA-cpT-BisQ-T-ACAAC-^5′ [FIT-PNA 3]	25.7 mM⁻¹ cm⁻¹	95.2	589	0.27	12	53.7	(+3.5)	–	–	–	–	–	–	–	–
GATTcpT-BisQ-TCTGTAGCTAC-PEG8-CLIP6 [CLIP6-PEG8-cpFIT-PNA]	–	–	–	–	–	–	–	–	18	two-fold	–	–	–	–	–
CCAACCT-BisQ-G^+TAAGTG-dK4 [G^+ modified CCAT1 FIT-PNA]	–	–	–	–	–	–	–	7	–	–	–	–	–	–	–

Second part, led by results:

BR (brightness) (complementary RNA [1])	εmax (complementary RNA [1]) [mM⁻¹ cm⁻¹]	λmax, abs (complementary RNA [1]) [nm]	Φ (quantum yield, QY) (complementary RNA [1])	Substance	I/I0 (complementary RNA [1])	Tm (complementary RNA [2]) [°C]	ΔTm (complementary RNA [2])	increase in fluorescence (CCAT1) [fold]	enhancement in fluorescence in duplex form (with complementary RNA) in comparison to single strand ([3]; 1.5 μM RNA) [fold]	increase in fluorescence in comparison to the non-modified FIT-PNA (CLIP6-PEG8-FIT-PNA) ([3]; 1.5 μM fully matched RNA (mutant))	enhancement upon duplex formation with complementary RNA (complementary RNA [1]) [fold]	amount of SOI sufficient to provide a measurable signal (complementary RNA [4])	increase in TC/TU mismatch discrimination with respect to non-modified FIT-PNA 5 [5] [fold]	TC mismatch discrimination vs. full matched RNA ([5]; 0.5 μM FIT-PNA, 0.75 μM RNA) [fold]	TU mismatch discrimination vs. full matched RNA ([5]; 0.5 μM FIT-PNA, 0.75 μM RNA) [fold]
29.1 mM⁻¹ cm⁻¹	85.7	586	0.34	^3′(4)KD-ATACA-cpT-BisQ-C-AAC-^5′ [FIT-PNA 6]	46	53	(+1.2)	–	–	–	–	–	–	–	–
16.5 mM⁻¹ cm⁻¹	82.3	587	0.20	^3′(4)KD-ATACA-T-BisQ-C-AAC-^5′ [FIT-PNA 5, reference compound]	24	51.8	–	–	–	–	–	–	–	–	–
35.3 mM⁻¹ cm⁻¹	90.6	586	0.39	^3′(4)KD-ATACA-cpT-BisQ-cpC-AAC-^5′ [FIT-PNA 7]	47	52.9	(+1.1)	–	–	–	47	low nM range	3 to 5	7.5	13.9
28.3 mM⁻¹ cm⁻¹	85.8	590	0.33	^3′(4)KD-ATA-cpC-BisQ-cpT-ACAAC-5′ [FIT-PNA 4]	46	54.7	(+4.5)	–	–	–	46	–	–	–	–
